pIC50: −log10 of the molar value.
Test system: 935938-334-R-J1-PDC spheroids with HUVEC/MSC, viability
Test: Anticancer human tumor 935938-334-R-J1-PDC patient-derived small intestine adenocarcinoma cell line growth inhibition [PI3K]
Conditions: for pIC50: curve of first compound; for viability, T/C: stronger effect = lower value
Outline: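 Multi-cell spheroids combine tumor cells with HUVEC and human MSCs, treated with targeted agents alone or with inavolisib, alpelisib, duvelisib or copanlisib. Concentrations fall in half-log steps from at or near clinical Cmax, or from 10 microM where Cmax is unknown; viability read-out.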

[1] = second compound 0.00316 µM, first compound 0.000316 µM
[2] = second compound 0.00316 µM, first compound 0.001 µM
[3] = second compound 0.00316 µM, first compound 0.00316 µM
[4] = second compound 0.00316 µM, first compound 0.01 µM
[5] = second compound 0.00316 µM, first compound 0.0316 µM
[6] = second compound 0.00316 µM, first compound 0.1 µM
[7] = second compound 0.01 µM, first compound 0.000316 µM
[8] = second compound 0.01 µM, first compound 0.001 µM
[9] = second compound 0.01 µM, first compound 0.00316 µM
[10] = second compound 0.01 µM, first compound 0.01 µM
[11] = second compound 0.01 µM, first compound 0.0316 µM
[12] = second compound 0.01 µM, first compound 0.1 µM
[13] = second compound 0.0316 µM, first compound 0.000316 µM
[14] = second compound 0.0316 µM, first compound 0.001 µM
[15] = second compound 0.0316 µM, first compound 0.00316 µM
[16] = second compound 0.0316 µM, first compound 0.01 µM
[17] = second compound 0.0316 µM, first compound 0.0316 µM
[18] = second compound 0.0316 µM, first compound 0.1 µM
[19] = second compound 0.1 µM, first compound 0.000316 µM
[20] = second compound 0.1 µM, first compound 0.001 µM
[21] = second compound 0.1 µM, first compound 0.00316 µM
[22] = second compound 0.1 µM, first compound 0.01 µM
[23] = second compound 0.1 µM, first compound 0.0316 µM
[24] = second compound 0.1 µM, first compound 0.1 µM
[25] = second compound 0.316 µM, first compound 0.000316 µM
[26] = second compound 0.316 µM, first compound 0.001 µM
[27] = second compound 0.316 µM, first compound 0.00316 µM
[28] = second compound 0.316 µM, first compound 0.01 µM
[29] = second compound 0.316 µM, first compound 0.0316 µM
[30] = second compound 0.316 µM, first compound 0.1 µM
[31] = second compound 1 µM, first compound 0.000316 µM
[32] = second compound 1 µM, first compound 0.001 µM
[33] = second compound 1 µM, first compound 0.00316 µM
[34] = second compound 1 µM, first compound 0.01 µM
[35] = second compound 1 µM, first compound 0.0316 µM
[36] = second compound 1 µM, first compound 0.1 µM
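Note: compound exposure lasted seven days before viability was read.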
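Throughout, for viability, T/C: percent of vehicle DMSO treated spheroid viability so 100% = untreated.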

Molecule `CC(=O)c1c(C)c2cnc(Nc3ccc(N4CCNCC4)cn3)nc2n(C2CCCC2)c1=O` + COc1c(OCCCN2CCOCC2)ccc2c3n(c(=NC(=O)c4cnc(N)nc4)nc12)CCN3 has a pIC50 (second compound 0.00316 µM) of under 7.00, a pIC50 (second compound 0.01 µM) of under 7.00 and a pIC50 (second compound 0.0316 µM) of under 7.00. It also gave a pIC50 (second compound 0.1 µM) of 9.21, a pIC50 (second compound 0.316 µM) of over 9.50 and a pIC50 (second compound 1 µM) of over 9.50. The viability, T/C [1] was 94.8%, the viability, T/C [2] was 98.7% and the viability, T/C [3] was 80.2%. For the same molecule, the viability, T/C [4] was 113%, the viability, T/C [5] was 110% and the viability, T/C [6] was 57.4%. For the same molecule, the viability, T/C [7] was 99.7%, the viability, T/C [8] was 90.8% and the viability, T/C [9] was 80.4%. For the same molecule, the viability, T/C [10] was 90.1%, the viability, T/C [11] was 78.4% and the viability, T/C [12] was 56.3%. The viability, T/C [13] was 81.8%, the viability, T/C [14] was 74.7% and the viability, T/C [15] was 68.3%. It also gave a viability, T/C [16] of 63.2%, a viability, T/C [17] of 63.8% and a viability, T/C [18] of 48.6%. It also gave a viability, T/C [19] of 54.4%, a viability, T/C [20] of 48.6% and a viability, T/C [21] of 37.9%. It also gave a viability, T/C [22] of 42%, a viability, T/C [23] of 39.7% and a viability, T/C [24] of 35.6%. It also gave a viability, T/C [25] of 39.9%, a viability, T/C [26] of 32.6% and a viability, T/C [27] of 29.2%. The viability, T/C [28] was 33.3%, the viability, T/C [29] was 27.9% and the viability, T/C [30] was 35.3%. It also gave a viability, T/C [31] of 38.4%, a viability, T/C [32] of 35.2% and a viability, T/C [33] of 35.3%. The viability, T/C [34] was 39.6%, the viability, T/C [35] was 30.2% and the viability, T/C [36] was 31%.
In the case of `CC(C)n1nc(-c2ccc3oc(N)nc3c2)c2c(N)ncnc21` + COc1c(OCCCN2CCOCC2)ccc2c3n(c(=NC(=O)c4cnc(N)nc4)nc12)CCN3, the pIC50 (second compound 0.00316 µM) was under 7.00, the pIC50 (second compound 0.01 µM) was 7.09 and the pIC50 (second compound 0.0316 µM) was 7.58. It also gave a pIC50 (second compound 0.1 µM) of over 9.50, a pIC50 (second compound 0.316 µM) of over 9.50 and a pIC50 (second compound 1 µM) of over 9.50. For the same molecule, the viability, T/C [1] was 86.9%, the viability, T/C [2] was 110% and the viability, T/C [3] was 106%. For the same molecule, the viability, T/C [4] was 99.9%, the viability, T/C [5] was 85.3% and the viability, T/C [6] was 54.8%. The viability, T/C [7] was 94.5%, the viability, T/C [8] was 83.2% and the viability, T/C [9] was 92.6%. It also gave a viability, T/C [10] of 89.5%, a viability, T/C [11] of 79.6% and a viability, T/C [12] of 43.4%. It also gave a viability, T/C [13] of 83.9%, a viability, T/C [14] of 107% and a viability, T/C [15] of 92.7%. It also gave a viability, T/C [16] of 68%, a viability, T/C [17] of 50.2% and a viability, T/C [18] of 35.1%. It also gave a viability, T/C [19] of 45.1%, a viability, T/C [20] of 59.4% and a viability, T/C [21] of 39.2%. It also gave a viability, T/C [22] of 48.2%, a viability, T/C [23] of 36.9% and a viability, T/C [24] of 34.8%. It also gave a viability, T/C [25] of 36.3%, a viability, T/C [26] of 38.9% and a viability, T/C [27] of 34.5%. It also gave a viability, T/C [28] of 31.1%, a viability, T/C [29] of 42.5% and a viability, T/C [30] of 31.1%. It also gave a viability, T/C [31] of 42.6%, a viability, T/C [32] of 37.2% and a viability, T/C [33] of 37.1%. It also gave a viability, T/C [34] of 32.5%, a viability, T/C [35] of 26.5% and a viability, T/C [36] of 33.4%.
Work on `CCCS(=O)(=O)Nc1ccc(F)c(C(=O)c2c[nH]c3ncc(-c4ccc(Cl)cc4)cc23)c1F` + COc1c(OCCCN2CCOCC2)ccc2c3n(c(=NC(=O)c4cnc(N)nc4)nc12)CCN3 yielded a pIC50 (second compound 0.00316 µM) of 5.13, a pIC50 (second compound 0.01 µM) of 5.13 and a pIC50 (second compound 0.0316 µM) of 5.17. The pIC50 (second compound 0.1 µM) was 5.27, the pIC50 (second compound 0.316 µM) was over 7.50 and the pIC50 (second compound 1 µM) was over 7.50. It also gave a viability, T/C [5] of 97.3%, a viability, T/C [6] of 104% and a viability, T/C (second compound 0.00316 µM, first compound 0.316 µM) of 113%. It also gave a viability, T/C (second compound 0.00316 µM, first compound 1 µM) of 132%, a viability, T/C (second compound 0.00316 µM, first compound 3.16 µM) of 102% and a viability, T/C (second compound 0.00316 µM, first compound 10 µM) of 31.2%. It also gave a viability, T/C [11] of 123%, a viability, T/C [12] of 107% and a viability, T/C (second compound 0.01 µM, first compound 0.316 µM) of 96.1%. For the same molecule, the viability, T/C (second compound 0.01 µM, first compound 1 µM) was 120%, the viability, T/C (second compound 0.01 µM, first compound 3.16 µM) was 115% and the viability, T/C (second compound 0.01 µM, first compound 10 µM) was 28.1%. It also gave a viability, T/C [17] of 95%, a viability, T/C [18] of 81.4% and a viability, T/C (second compound 0.0316 µM, first compound 0.316 µM) of 85%. It also gave a viability, T/C (second compound 0.0316 µM, first compound 1 µM) of 108%, a viability, T/C (second compound 0.0316 µM, first compound 3.16 µM) of 87.9% and a viability, T/C (second compound 0.0316 µM, first compound 10 µM) of 29.5%. For the same molecule, the viability, T/C [23] was 61.8%, the viability, T/C [24] was 65.5% and the viability, T/C (second compound 0.1 µM, first compound 0.316 µM) was 65.3%. For the same molecule, the viability, T/C (second compound 0.1 µM, first compound 1 µM) was 89.1%, the viability, T/C (second compound 0.1 µM, first compound 3.16 µM) was 70.6% and the viability, T/C (second compound 0.1 µM, first compound 10 µM) was 26.7%. It also gave a viability, T/C [29] of 39%, a viability, T/C [30] of 45.2% and a viability, T/C (second compound 0.316 µM, first compound 0.316 µM) of 51.6%. It also gave a viability, T/C (second compound 0.316 µM, first compound 1 µM) of 49.3%, a viability, T/C (second compound 0.316 µM, first compound 3.16 µM) of 49.5% and a viability, T/C (second compound 0.316 µM, first compound 10 µM) of 31.9%. The viability, T/C [35] was 39.2%, the viability, T/C [36] was 40.9% and the viability, T/C (second compound 1 µM, first compound 0.316 µM) was 39.3%. It also gave a viability, T/C (second compound 1 µM, first compound 1 µM) of 50%, a viability, T/C (second compound 1 µM, first compound 3.16 µM) of 50.3% and a viability, T/C (second compound 1 µM, first compound 10 µM) of 23.9%.

From PubChem BioAssay AID1963966 (Molecular Pharmacology Branch, DTP, NCI, 2024)
